Key:
[1] = system: fused protein of DsRed and PKC having at its N terminal end a tag polypeptide of sequence (A); test: Imaging of PKC in cytoplasm of CHO.K1 cells through formation of tag-probe complex (observation of NBD); assay type: cell-based
Description: CHO.K1 cells expressing a fused protein of DsRed and PKC having at its N terminal end a tag polypeptide of sequence (A) as indicated below were prepared using Lipofectamin LTX (Invitrogen).
Subsequently, a permeabilization buffer (20 mM Hepes, pH 7.4, 140 mM KCl, 50 μg/mL saponin, 5 mM oxalic acid) was added to the thus-prepared CHO.K1 cells. After left to stand on ice for 10 min, the cells were washed with PBS, followed by incubating on ice for 20 min in PBS. Thereafter, the cells were incubated in PBS at room temperature for 2 min and then 37° C. for 2 min. Further, the cells were incubated at 37° C. for 30 min in a conditioned medium (Ham's F12) to which a probe indicated by sequence (B) (probe concentration: 1 μM (Final conc.)) had been added.
The medium was changed to a DMEM with no phenol red, and then, the cells were observed by a fluorescence microscope (IX81 (Olympus), objective lens: 20 times) at predetermined emission wavelength (490 nm to 510 nm).
(§1) Separately, before treated with the permeabilization buffer, the above-prepared CHO.K1 cells were treated for 10 min with 10 mM DMSO containing PDBu (phorbol 12,13 dibutyrate; final concentration: 10 μM). The cells were observed by the fluorescence microscope similar to the above.

[2] = system: fused protein of DsRed and PKC having at its N terminal end a tag polypeptide indicated by sequence (A); test: Localization of PKC in cytoplasm (DsRed fluorescence); assay type: cell-based; settings: CHO.K1 cells treated for 10 min, final concentration 10 μM; 515 nm to 560 nm
Description: as §1
The following was used as a control; a group which was not treated with PDBu, and CHO.K1 cells to which only DIC was introduced (note that DIC is a vector used for introducing into cells the above-mentioned fused protein of DsRed and PKC having at its N terminal end a tag polypeptide indicated by sequence (A). The cells were observed as mentioned above at predetermined wavelength (515 nm to 560 nm). The results are shown in FIG. 11.

[3] = Circular dichroism spectroscopy of tag peptide, probe peptide and tag-probe mixture; assay type: physicochemical; settings: for probe peptides that formed an α-helix structure: probe peptide alone; for tag peptides that formed an α-helix structure: tag peptide alone
Description: The circular dichroism spectrum of the tag polypeptides and the probe polypeptides of Examples 1 to 3 were measured.
The structures of the tag peptide, the probe peptide and the tag-probe complex were analyzed by circular dichroism spectroscopy.
In each of FIGS. 3A to 3C, the horizontal axis represents wavelength used for measurement whereas the vertical axis represents molar residue ellipticity.

[4] = system: probe peptide; test: Fluorescence titration of probe peptide with tag peptide (HEPES buffer), incl. Job's plot; assay type: binding; settings: for fluorescence wavelength ultimately shifted to on addition of tag peptide: 0.5 μM probe peptide, 0.1 to 2.0 equivalents of tag peptide; for Kd: tag peptide to probe peptide, theoretical formula assuming 1 to 1 interaction, fluorescence at 505 nm, read-out: dissociation constant Kd
Description: Fluorescence titration was performed for the tag polypeptides and the probe polypeptides of Examples 1 to 3.
In the fluorescence titration, the rate of change of the fluorescence intensity at 505 nm was plotted against the concentration of the tag peptide and the dissociation constant was calculated from a theoretical formula assuming 1 to 1 binding of the tag peptide to the probe peptide.
In Example 1, the fluorescence intensity at 505 nm in the presence of 1 equivalent of tag peptide was 18 times as high as that measured in the absence of the tag peptide.
Also in the fluorescence titration, with the total concentration of the tag peptide and the probe peptide being fixed at 1.0 μM, the ratio of the respective concentrations of the tag peptide and the probe peptide was varied and the fluorescence intensity at 505 nm was measured. The measured fluorescence intensity was plotted against the ratio of the tag peptide concentration to the total concentration of the tag peptide and the probe peptide and was analyzed by the theoretical formula assuming 1 to 1 binding of the tag peptide to the probe peptide.

[5] = system: probe peptide; test: Fluorescence titration in cell lysate; assay type: binding; settings: HeLa cell lysate, 0.1 to 4.0 equivalents of tag peptide
Description: Fluorescence titration was performed for the tag polypeptides and the robe polypeptides of Example 1 in a cell lysate.
10 mL of a HeLa cell culture solution containing 1.0×10^6 cells/mL were dispensed in a centrifugal tube and the cells were centrifuged for 5 minutes at 1000 rpm to obtain a pellet of HeLa cells. The pellet was dispersed in 1 mL HEPES buffer and the dispersion was sonicated for 10 minutes. Subsequently, the dispersion was filtered through a membrane filter to remove undesired materials and thus give a cell lysate. The probe peptide was dissolved in the cell lysate to a concentration of […]. To this solution, a tag peptide solution was added dropwise until the solution contained 0.1 to 4.0 equivalents of the tag peptide. The resulting solution was subjected to fluorescence spectroscopy.
In FIG. 9, the horizontal axis represents fluorescence wavelength whereas the vertical axis represents fluorescence intensity

[6] = system: tag peptide represented by structural formula (8); test: Crosslink reaction of chloroacetylated probe peptide with tag peptide; assay type: biochemical; settings: 10 minutes after start, 1.0 μM tag and 1.0 μM probe, 25° C., pH 7.2
Description: The probe peptide for crosslink reaction obtained in Example 7 was used to perform a crosslink reaction.
The probe peptide was crosslinked to a tag peptide represented by the following structural formula (8). The tag polypeptide is identical to that used in Example 1.
To a 1.0 μM tag peptide solution (50 mM HEPES buffer (pH 7.2, 10 mM NaCl)), the probe peptide was added to a concentration of 1.0 μM and the reaction was carried out at 25° C.-1 mL samples were collected from the reaction mixture after 1, 5, 10, 15, 20 and 30 minutes. 1 mL of a 10% aqueous acetic acid solution was added to each sample to quench the reaction. The samples were analyzed by HPLC using a C18 reversed-phase analytical column (4.6×250 mm). The crosslinked product was identified by ESI-TOF MS. The yield of the reaction was calculated from the peak area ratio of HPLC.
In FIG. 10, the horizontal axis represents elapsed time after addition of the probe peptide whereas the vertical axis represents the yield of the crosslink reaction.

Row | probe peptides that formed an α-helix structure [3] [%] | tag peptides that formed an α-helix structure [3] [%] | tags and probes that formed an α-helix structure in the tag-probe mixture [3] [%] | Kd [4] [nM] | Compound | localization of NBD-derived fluorescence ([1]; CHO.K1 cells treated for 10 min, final concentration 10 μM) | localization of DsRed-derived fluorescence [2] | fluorescence wavelength ultimately shifted to on addition of tag peptide [4] [nm] | fluorescence intensity at 505 nm relative to that measured in the absence of the tag peptide ([4]; in the presence of 1 equivalent of tag peptide) [times] | comparison of fluorescence intensity among Examples 1 to 3 ([4]; overlapped spectra of highest peaks, FIG. 5) | spectral changes of probe peptide as tag peptide was added [5] | yield of the crosslink reaction [6] | NBD-derived fluorescence in cells ([1]; 1 μM probe, permeabilized CHO.K1 cells, around 510 nm)
1 |  |  |  |  | CCCC(=O)O[C@@H]1[C@@H](C)[C@@]2(O)[C@@H](C=C(CO)C[C@]3(O)C(=O)C(C)=C[C@@H]23)[C@@H]2C(C)(C)[C@]12OC(=O)CCC [PDBu, phorbol 12,13 dibutyrate, reference compound] | locally observed | locally observed |  |  |  |  |  | 
2 | 53 | 18 | 41 | 755 | ALKKELEAGKKELEALKKELAGGCGGALEKELEALEKEGEALEKELA [Example 3] |  |  | 526 |  |  |  |  | 
3 | 53 | 81 | 78 | 24.3 | ALKKELEALKKELEALKKELAGGCGGALEKELEALEKELEALEKELA [Example 2] |  |  | 516 |  |  |  |  | 
4 |  |  |  |  | ClAc-{Gly}{Ala-Leu-Lys-Lys-Lys-Leu-Glu}{Ala-Leu-Lys-Lys-Lys-Dap(NBD)-Glu}{Ala-Leu-Lys-Lys-Lys-Leu-Ala} [Example 7] |  |  |  |  |  |  | at least 80% | increase in fluorescence intensity

Row | Compound | probe peptides that formed an α-helix structure [3] [%] | tag peptides that formed an α-helix structure [3] [%] | tags and probes that formed an α-helix structure in the tag-probe mixture [3] [%] | Kd [4] [nM] | localization of NBD-derived fluorescence ([1]; CHO.K1 cells treated for 10 min, final concentration 10 μM) | localization of DsRed-derived fluorescence [2] | fluorescence wavelength ultimately shifted to on addition of tag peptide [4] [nm] | fluorescence intensity at 505 nm relative to that measured in the absence of the tag peptide ([4]; in the presence of 1 equivalent of tag peptide) [times] | comparison of fluorescence intensity among Examples 1 to 3 ([4]; overlapped spectra of highest peaks, FIG. 5) | spectral changes of probe peptide as tag peptide was added [5] | yield of the crosslink reaction [6] | NBD-derived fluorescence in cells ([1]; 1 μM probe, permeabilized CHO.K1 cells, around 510 nm)
5 | ALKKELEAAKKELEALKKELAGGCGGALEKELEALEKEAEALEKELA [Example 1] | 53 | 58 | 71 | 17.5 |  |  | 505 | 18 | highest fluorescence intensity | substantially the same spectral changes as in HEPES buffer |  | 

Reference: patent publication US8445291B2, “Method for detecting target substance, and tag, DNA, vector, probe and detection kit for use therewith” (National University Corporation Tokyo Medical and Dental …, priority 2007, dated 2013)
